Experimental data published in the supplement of paper PMC10307832.

Experiments:
Assay in all cases: relative viability (nuclei count vs DMSO), 5 days (fraction); higher = more cells survive
COR-L 105 = test system: COR-L 105
Method in brief: (§1)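 Values are medians from duplicate plates. Each reflects relative viability, defined as the nuclei count of treated wells over that of vehicle wells. Lung cancer cell lines in 1536-well plates were pin-tool dosed one day after seeding with one drug alone or with a fixed anchor-drug dose plus five library-drug doses (not always all listed) in √10 steps, then fixed, stained and imaged at 4× after 5 days.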

COR-L23 = test system: COR-L23
Method in brief: as §1

EPLC-272H = test system: EPLC-272H
Method in brief: as §1

HARA = test system: HARA
Method in brief: as §1

HCC-15 = test system: HCC-15
Method in brief: as §1

HCC-366 = test system: HCC-366
Method in brief: as §1

HCC-44 = test system: HCC-44
Method in brief: as §1

HCC-78 = test system: HCC-78
Method in brief: as §1

HCC-827 = test system: HCC-827
Method in brief: as §1

LCLC-103H = test system: LCLC-103H
Method in brief: as §1

NCI-H1395 = test system: NCI-H1395
Method in brief: as §1

NCI-H1437 = test system: NCI-H1437
Method in brief: as §1

NCI-H1792 = test system: NCI-H1792
Method in brief: as §1

NCI-H1944 = test system: NCI-H1944
Method in brief: as §1

NCI-H1975 = test system: NCI-H1975
Method in brief: as §1

NCI-H2023 = test system: NCI-H2023
Method in brief: as §1

NCI-H2085 = test system: NCI-H2085
Method in brief: as §1

NCI-H2405 = test system: NCI-H2405
Method in brief: as §1

NCI-H358 = test system: NCI-H358
Method in brief: as §1

NCI-H661 = test system: NCI-H661
Method in brief: as §1

NCI-H727 = test system: NCI-H727
Method in brief: as §1

SK-LU-1 = test system: SK-LU-1
Method in brief: as §1

UMC-11 = test system: UMC-11
Method in brief: as §1

With `O=c1[nH]c2ccccc2n1C1CCN(CCCC(c2ccc(F)cc2)c2ccc(F)cc2)CC1` [Pimozide] + CC(=O)Nc1cccc(-n2c(=O)n(C3CC3)c(=O)c3c(Nc4ccc(I)cc4F)n(C)c(=O)c(C)c32)c1 [Trametinib] (partner 0.02 µM) the relative viability (COR-L 105; first compound 0.08 µM) was 0.399, the relative viability (COR-L 105; first compound 0.253 µM) was 0.418 and the relative viability (COR-L 105; first compound 0.8 µM) was 0.425. For the same compound, the relative viability (COR-L 105; first compound 2.53 µM) was 0.437, the relative viability (COR-L 105; first compound 8 µM) was 0.779 and the relative viability (COR-L23; first compound 0.08 µM) was 0.541. It also gave a relative viability (COR-L23; first compound 0.253 µM) of 0.596, a relative viability (COR-L23; first compound 0.8 µM) of 0.602 and a relative viability (COR-L23; first compound 2.53 µM) of 0.629. It also gave a relative viability (COR-L23; first compound 8 µM) of 0.478, a relative viability (EPLC-272H; first compound 0.08 µM) of 0.282 and a relative viability (EPLC-272H; first compound 0.253 µM) of 0.26. For the same compound, the relative viability (EPLC-272H; first compound 0.8 µM) was 0.27, the relative viability (EPLC-272H; first compound 2.53 µM) was 0.263 and the relative viability (EPLC-272H; first compound 8 µM) was 0.233. It also gave a relative viability (HARA; first compound 0.08 µM) of 0.612, a relative viability (HARA; first compound 0.253 µM) of 0.662 and a relative viability (HARA; first compound 0.8 µM) of 0.739. The relative viability (HARA; first compound 2.53 µM) was 0.458, the relative viability (HARA; first compound 8 µM) was 0.631 and the relative viability (HCC-15; first compound 0.08 µM) was 0.398. The relative viability (HCC-15; first compound 0.253 µM) was 0.355, the relative viability (HCC-15; first compound 0.8 µM) was 0.386 and the relative viability (HCC-15; first compound 2.53 µM) was 0.358. For the same compound, the relative viability (HCC-15; first compound 8 µM) was 0.34, the relative viability (HCC-366; first compound 0.08 µM) was 0.32 and the relative viability (HCC-366; first compound 0.253 µM) was 0.282. It also gave a relative viability (HCC-366; first compound 0.8 µM) of 0.361, a relative viability (HCC-366; first compound 2.53 µM) of 0.298 and a relative viability (HCC-366; first compound 8 µM) of 0.34. For the same compound, the relative viability (HCC-44; first compound 0.08 µM) was 1.1, the relative viability (HCC-44; first compound 0.253 µM) was 1.18 and the relative viability (HCC-44; first compound 0.8 µM) was 0.913. The relative viability (HCC-44; first compound 2.53 µM) was 0.979, the relative viability (HCC-44; first compound 8 µM) was 0.887 and the relative viability (HCC-78; first compound 0.08 µM) was 0.704. The relative viability (HCC-78; first compound 0.8 µM) was 0.688, the relative viability (HCC-78; first compound 2.53 µM) was 0.776 and the relative viability (HCC-78; first compound 8 µM) was 0.757. For the same compound, the relative viability (HCC-827; first compound 0.253 µM) was 0.538, the relative viability (HCC-827; first compound 0.8 µM) was 0.556 and the relative viability (HCC-827; first compound 2.53 µM) was 0.532. The relative viability (HCC-827; first compound 8 µM) was 0.561, the relative viability (LCLC-103H; first compound 0.08 µM) was 0.676 and the relative viability (LCLC-103H; first compound 0.253 µM) was 0.656. The relative viability (LCLC-103H; first compound 0.8 µM) was 0.642, the relative viability (LCLC-103H; first compound 2.53 µM) was 0.631 and the relative viability (LCLC-103H; first compound 8 µM) was 0.669. For the same compound, the relative viability (NCI-H1395; first compound 0.08 µM) was 0.929, the relative viability (NCI-H1395; first compound 0.253 µM) was 0.924 and the relative viability (NCI-H1395; first compound 0.8 µM) was 0.993. For the same compound, the relative viability (NCI-H1395; first compound 2.53 µM) was 1.09, the relative viability (NCI-H1395; first compound 8 µM) was 0.916 and the relative viability (NCI-H1437; first compound 0.08 µM) was 0.652. It also gave a relative viability (NCI-H1437; first compound 0.253 µM) of 0.495, a relative viability (NCI-H1437; first compound 0.8 µM) of 0.441 and a relative viability (NCI-H1437; first compound 2.53 µM) of 0.376. It also gave a relative viability (NCI-H1437; first compound 8 µM) of 0.412, a relative viability (NCI-H1792; first compound 0.08 µM) of 0.466 and a relative viability (NCI-H1792; first compound 0.253 µM) of 0.412. It also gave a relative viability (NCI-H1792; first compound 0.8 µM) of 0.36, a relative viability (NCI-H1792; first compound 2.53 µM) of 0.393 and a relative viability (NCI-H1792; first compound 8 µM) of 0.454. It also gave a relative viability (NCI-H1944; first compound 0.08 µM) of 0.396, a relative viability (NCI-H1944; first compound 2.53 µM) of 0.346 and a relative viability (NCI-H1944; first compound 8 µM) of 0.409. The relative viability (NCI-H1975; first compound 0.08 µM) was 0.273, the relative viability (NCI-H1975; first compound 0.253 µM) was 0.405 and the relative viability (NCI-H1975; first compound 0.8 µM) was 0.363. It also gave a relative viability (NCI-H1975; first compound 2.53 µM) of 0.353, a relative viability (NCI-H1975; first compound 8 µM) of 0.227 and a relative viability (NCI-H2023; first compound 0.08 µM) of 0.584. It also gave a relative viability (NCI-H2023; first compound 0.253 µM) of 0.532, a relative viability (NCI-H2023; first compound 0.8 µM) of 0.582 and a relative viability (NCI-H2023; first compound 2.53 µM) of 0.429. It also gave a relative viability (NCI-H2023; first compound 8 µM) of 0.362, a relative viability (NCI-H2085; first compound 0.08 µM) of 0.659 and a relative viability (NCI-H2085; first compound 0.253 µM) of 0.625. It also gave a relative viability (NCI-H2085; first compound 0.8 µM) of 0.583, a relative viability (NCI-H2085; first compound 2.53 µM) of 0.404 and a relative viability (NCI-H2085; first compound 8 µM) of 0.399. It also gave a relative viability (NCI-H2405; first compound 0.08 µM) of 0.606, a relative viability (NCI-H2405; first compound 0.253 µM) of 0.65 and a relative viability (NCI-H2405; first compound 0.8 µM) of 0.621. For the same compound, the relative viability (NCI-H2405; first compound 2.53 µM) was 0.491, the relative viability (NCI-H2405; first compound 8 µM) was 0.36 and the relative viability (NCI-H358; first compound 0.08 µM) was 0.135. The relative viability (NCI-H358; first compound 0.253 µM) was 0.147, the relative viability (NCI-H358; first compound 0.8 µM) was 0.137 and the relative viability (NCI-H358; first compound 2.53 µM) was 0.13. It also gave a relative viability (NCI-H358; first compound 8 µM) of 0.126, a relative viability (NCI-H661; first compound 0.08 µM) of 0.598 and a relative viability (NCI-H661; first compound 0.253 µM) of 0.583. It also gave a relative viability (NCI-H661; first compound 0.8 µM) of 0.498, a relative viability (NCI-H661; first compound 2.53 µM) of 0.492 and a relative viability (NCI-H661; first compound 8 µM) of 0.409. The relative viability (NCI-H727; first compound 0.08 µM) was 0.396, the relative viability (NCI-H727; first compound 0.253 µM) was 0.426 and the relative viability (NCI-H727; first compound 0.8 µM) was 0.383. It also gave a relative viability (NCI-H727; first compound 2.53 µM) of 0.443, a relative viability (NCI-H727; first compound 8 µM) of 0.403 and a relative viability (SK-LU-1; first compound 0.08 µM) of 0.463. The relative viability (SK-LU-1; first compound 0.253 µM) was 0.472, the relative viability (SK-LU-1; first compound 0.8 µM) was 0.455 and the relative viability (SK-LU-1; first compound 2.53 µM) was 0.404. It also gave a relative viability (SK-LU-1; first compound 8 µM) of 0.352, a relative viability (UMC-11; first compound 0.08 µM) of 0.602 and a relative viability (UMC-11; first compound 0.253 µM) of 0.675. For the same compound, the relative viability (UMC-11; first compound 0.8 µM) was 0.655, the relative viability (UMC-11; first compound 2.53 µM) was 0.681 and the relative viability (UMC-11; first compound 8 µM) was 0.918.
